“And” between values parts separate entries of the source, which are not always exact repeats. Equal entries are not always repeated. ± gives the expanded uncertainty stated by the source. Values belong to the compound of their own block, whether it stands above or below them.
Experiments:
[1] = wn = mass fraction of the nth substance listed; conditions: 298.15 K, 102.5 kPa, Liquid; for viscosity: Concentric cylinders viscometry; for mass density: Vibrating tube method
[2] = Crystal; visual observation

- viscosity ([1]; w1 = 0.2642): 1.5 ± 0.03 mPa·s and 1.7 ± 0.04 mPa·s
- mass density ([1]; w1 = 0.2642): 1194 ± 2 kg/m3 and 1214 ± 2 kg/m3
Compound: [Cl-].[Na+] [sodium chloride] + O

Compound: O=[PH2][O-].[Na+] [sodium phosphinate] + O
- viscosity ([1]; w1 = 0.5196): 17.6 ± 0.38 mPa·s
- mass density ([1]; w1 = 0.5196): 1394 ± 3 kg/m3

Compound: O=[PH2][O-].O=[PH2][O-].[Zn+2] [zinc(II) phosphinate]
- Triple point temperature [2]: 446.15 ± 5 K

Compound: O=[PH2][O-].O=[PH2][O-].[Zn+2] [zinc(II) phosphinate] + O
- viscosity ([1]; w2 = 0.5196): 2.04 ± 0.04 mPa·s
- mass density ([1]; w1 = 0.1861): 1157 ± 2 kg/m3

— the NIST ThermoML archive (doi:10.1021/acs.jced.5b00988)
